PubChem BioAssay (NCI)
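Following 48 hours of exposure in 96-well plates, responses at five concentrations were used to interpolate endpoints linearly. The concentration for full growth arrest is given as TGI.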 Activity calls are given as the source filed them. Cut-off read from the data, not from the text of the source: active = GI50 below about 0.43 µM; inactive = the rest.

Key:
Assay in all cases: inhibition of tumour cell growth, NCI panel, 48 h
KM12 colon = test system: KM12 colon
HCT-15 colon = test system: HCT-15 colon
SK-OV-3 ovarian = test system: SK-OV-3 ovarian
K-562 leukemia = test system: K-562 leukemia
MOLT-4 leukemia = test system: MOLT-4 leukemia
IGROV1 ovarian = test system: IGROV1 ovarian
OVCAR-5 ovarian = test system: OVCAR-5 ovarian
786-0 renal = test system: 786-0 renal
HCC-2998 colon = test system: HCC-2998 colon
DMS 114 small cell lung = test system: DMS 114 small cell lung
SNB-75 CNS = test system: SNB-75 CNS
SR leukemia = test system: SR leukemia
MALME-3M melanoma = test system: MALME-3M melanoma
SN12C renal = test system: SN12C renal
CAKI-1 renal = test system: CAKI-1 renal
ACHN renal = test system: ACHN renal
NCI-H226 lung = test system: NCI-H226 lung
XF 498 CNS = test system: XF 498 CNS
HL-60(TB) leukemia = test system: HL-60(TB) leukemia
HOP-92 NSCLC = test system: HOP-92 NSCLC
EKVX NSCLC = test system: EKVX NSCLC
NCI-H522 lung = test system: NCI-H522 lung
KM20L2 colon = test system: KM20L2 colon
COLO 205 colon = test system: COLO 205 colon
HT29 colon = test system: HT29 colon
A549 NSCLC = test system: A549 NSCLC
U251 CNS = test system: U251 CNS
NCI-H460 lung = test system: NCI-H460 lung
NCI-H23 lung = test system: NCI-H23 lung
SF-295 CNS = test system: SF-295 CNS
SW-620 colon = test system: SW-620 colon
LOX IMVI melanoma = test system: LOX IMVI melanoma
SNB-78 CNS = test system: SNB-78 CNS
OVCAR-4 ovarian = test system: OVCAR-4 ovarian
SK-MEL-2 melanoma = test system: SK-MEL-2 melanoma
CCRF-CEM leukemia = test system: CCRF-CEM leukemia
RXF-631 renal = test system: RXF-631 renal
RXF 393 renal = test system: RXF 393 renal
OVCAR-3 ovarian = test system: OVCAR-3 ovarian
UACC-62 melanoma = test system: UACC-62 melanoma
OVCAR-8 ovarian = test system: OVCAR-8 ovarian
DLD-1 colon = test system: DLD-1 colon
M19-MEL melanoma = test system: M19-MEL melanoma
HCT-116 colon = test system: HCT-116 colon
HOP-62 NSCLC = test system: HOP-62 NSCLC
SF-539 CNS = test system: SF-539 CNS
M14 melanoma = test system: M14 melanoma
UO-31 renal = test system: UO-31 renal
SF-268 CNS = test system: SF-268 CNS
SNB-19 CNS = test system: SNB-19 CNS
DMS 273 small cell lung = test system: DMS 273 small cell lung
UACC-257 melanoma = test system: UACC-257 melanoma
RPMI-8226 leukemia = test system: RPMI-8226 leukemia
LXFL 529 NSCLC = test system: LXFL 529 NSCLC
A498 renal = test system: A498 renal
TK-10 renal = test system: TK-10 renal
SK-MEL-28 melanoma = test system: SK-MEL-28 melanoma
SK-MEL-5 melanoma = test system: SK-MEL-5 melanoma

SMILES: COC(=O)C1(COCc2ccccc2)CCCC2OC21 (centres undefined)
- outcome (KM12 colon): inactive
- outcome (HCT-15 colon): inactive
- outcome (SK-OV-3 ovarian): inactive
- outcome (K-562 leukemia): inactive
- outcome (MOLT-4 leukemia): inactive
- outcome (IGROV1 ovarian): inactive
- outcome (OVCAR-5 ovarian): inactive
- outcome (786-0 renal): inactive
- outcome (HCC-2998 colon): inactive
- outcome (DMS 114 small cell lung): inactive
- outcome (SNB-75 CNS): inactive
- outcome (SR leukemia): inactive
- outcome (MALME-3M melanoma): inactive
- outcome (SN12C renal): inactive
- outcome (CAKI-1 renal): inactive
- outcome (ACHN renal): inactive
- outcome (NCI-H226 lung): inactive
- outcome (XF 498 CNS): inactive
- outcome (HL-60(TB) leukemia): inactive
- outcome (HOP-92 NSCLC): inactive
- outcome (EKVX NSCLC): inactive
- outcome (NCI-H522 lung): inactive
- outcome (KM20L2 colon): inactive
- outcome (COLO 205 colon): inactive
- outcome (HT29 colon): inactive
- outcome (A549 NSCLC): inactive
- outcome (U251 CNS): inactive
- outcome (NCI-H460 lung): inactive
- outcome (NCI-H23 lung): inactive
- outcome (SF-295 CNS): inactive
- outcome (SW-620 colon): inactive
- outcome (LOX IMVI melanoma): inactive
- outcome (SNB-78 CNS): inactive
- outcome (OVCAR-4 ovarian): inactive
- outcome (SK-MEL-2 melanoma): inactive
- outcome (CCRF-CEM leukemia): inactive
- outcome (RXF-631 renal): inactive
- outcome (RXF 393 renal): inactive
- outcome (OVCAR-3 ovarian): inactive
- outcome (UACC-62 melanoma): inactive
- outcome (OVCAR-8 ovarian): inactive
- outcome (DLD-1 colon): inactive
- outcome (M19-MEL melanoma): inactive
- outcome (HCT-116 colon): inactive
- outcome (HOP-62 NSCLC): inactive
- outcome (SF-539 CNS): inactive
- outcome (M14 melanoma): inactive
- outcome (UO-31 renal): inactive
- outcome (SF-268 CNS): inactive
- outcome (SNB-19 CNS): inactive
- outcome (DMS 273 small cell lung): inactive
- outcome (UACC-257 melanoma): inactive
- outcome (RPMI-8226 leukemia): inactive
- outcome (LXFL 529 NSCLC): inactive

SMILES: O=C(Nc1ccccc1)C(=O)C(C(=O)c1ccccc1F)C1OC(=O)c2ccccc21 (centres undefined)
- TGI (KM12 colon): > 100 µM
- TGI (HCT-15 colon): 67.3 µM
- TGI (SK-OV-3 ovarian): > 100 µM
- TGI (A498 renal): > 100 µM
- TGI (K-562 leukemia): > 100 µM
- TGI (MOLT-4 leukemia): > 100 µM
- TGI (IGROV1 ovarian): > 100 µM
- TGI (OVCAR-5 ovarian): > 100 µM
- TGI (HCC-2998 colon): 57.4 µM
- TGI (DMS 114 small cell lung): 61.7 µM
- TGI (SNB-75 CNS): 72.2 µM
- TGI (SR leukemia): 77.9 µM
- TGI (SN12C renal): > 100 µM
- TGI (CAKI-1 renal): > 100 µM
- TGI (ACHN renal): > 100 µM
- TGI (NCI-H226 lung): 62.6 µM
- TGI (XF 498 CNS): > 100 µM
- TGI (HL-60(TB) leukemia): 75.6 µM
- TGI (HOP-92 NSCLC): > 100 µM
- TGI (EKVX NSCLC): > 100 µM
- TGI (NCI-H522 lung): 61.8 µM
- TGI (KM20L2 colon): > 100 µM
- TGI (COLO 205 colon): 43.2 µM
- TGI (TK-10 renal): > 100 µM
- TGI (HT29 colon): > 100 µM
- TGI (A549 NSCLC): > 100 µM
- TGI (U251 CNS): 46.9 µM
- TGI (NCI-H460 lung): > 100 µM
- TGI (NCI-H23 lung): > 100 µM
- TGI (SF-295 CNS): > 100 µM
- TGI (SK-MEL-28 melanoma): > 100 µM
- TGI (SW-620 colon): > 100 µM
- TGI (LOX IMVI melanoma): 63.2 µM
- TGI (SNB-78 CNS): > 100 µM
- TGI (OVCAR-4 ovarian): > 100 µM
- TGI (SK-MEL-2 melanoma): 93.8 µM
- TGI (SK-MEL-5 melanoma): > 100 µM
- TGI (CCRF-CEM leukemia): > 100 µM
- TGI (RXF-631 renal): > 100 µM
- TGI (RXF 393 renal): 63.2 µM
- TGI (UACC-62 melanoma): > 100 µM
- TGI (OVCAR-8 ovarian): 55 µM
- TGI (DLD-1 colon): > 100 µM
- TGI (M19-MEL melanoma): > 100 µM
- TGI (HCT-116 colon): 49.9 µM
- TGI (HOP-62 NSCLC): > 100 µM
- TGI (SF-539 CNS): 43.2 µM
- TGI (M14 melanoma): > 100 µM
- TGI (UO-31 renal): > 100 µM
- TGI (SF-268 CNS): 81 µM
- TGI (SNB-19 CNS): > 100 µM
- TGI (DMS 273 small cell lung): > 100 µM
- TGI (UACC-257 melanoma): > 100 µM
- TGI (RPMI-8226 leukemia): > 100 µM
- TGI (LXFL 529 NSCLC): > 100 µM
